18 molecules from patent publication US8389533B2, “Gem-disubstituted and spirocyclic amino pyridines/pyrimidines as cell cycle inhibitors” (Amgen Inc., priority 2008, dated 2013) can be followed below.

For one assay, the target named is Cdk4/CyclinD1 (Homo sapiens, UniProt P11802). As to the kind of experiment: Cdk4 kinase inhibition assay (33P-ATP filter plate, Rb substrate). The settings on record: recombinant Cdk4/CyclinD1, Rb substrate, 25 μM ATP, 1 hour room temperature; read-out: Cdk 4 IC50. In kind it is biochemical. On the procedure: (§1) The Cdk4 and Cdk6 inhibitory activity of the compounds is measured with a kinase inhibition assay using recombinant Cdk4/CyclinD1 or Cdk6/CyclinD3 protein complexes. The protein substrate used in the assay is the retinoblastoma protein (Rb). The kinase reactions are carried out in a 96-well filter plate (MSDV N6B50, Millipore). Compounds are serially diluted in kinase buffer (20 mM Tris-HCl, pH 7.4, 50 mM NaCl, 1 mM DTT, 1 mg/ml BSA) and added to the reaction mixture containing 2.5 ng/ml Cdk4/CyclinD1 or Cdk6/CyclinD3, 25 μM ATP, 10 μCi/ml [^33P]-ATP, 0.1 μg/ml Rb in the kinase buffer. The mixture is incubated at room temperature for 1 hour and the proteins precipitated with an equal volume of 20% TCA. The plates are washed with 10% TCA according to the manufacturer's instruction and dried at room temperature. The amount of the phosphorylated Rb is determined with a TopCount (PerkinElmer). The IC50 of a compound is determined by nonlinear regression curve fitting using software program Prism 5 (GraphPad Software).

The next assay has as its target Cdk6/CyclinD3 (Homo sapiens, UniProt Q00534). As to the kind of experiment: Cdk6 kinase inhibition assay (33P-ATP filter plate, Rb substrate). The following applies: recombinant Cdk6/CyclinD3, Rb substrate, 25 μM ATP, 1 hour room temperature; read-out: Cdk 6 IC50. In kind it is biochemical. As for the experimental part:
as §1

Chain of Cdk4/CyclinD1 (P11802 whole entry): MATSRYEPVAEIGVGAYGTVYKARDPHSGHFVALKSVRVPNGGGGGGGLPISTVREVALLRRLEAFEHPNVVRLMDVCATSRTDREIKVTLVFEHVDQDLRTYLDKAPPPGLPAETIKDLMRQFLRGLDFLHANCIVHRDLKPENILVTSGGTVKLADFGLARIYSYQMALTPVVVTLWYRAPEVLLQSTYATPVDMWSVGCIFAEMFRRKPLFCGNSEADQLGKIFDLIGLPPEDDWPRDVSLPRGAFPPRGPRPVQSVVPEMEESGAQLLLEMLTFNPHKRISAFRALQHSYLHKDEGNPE
Chain of Cdk4/CyclinD1 (P24385 whole entry partner): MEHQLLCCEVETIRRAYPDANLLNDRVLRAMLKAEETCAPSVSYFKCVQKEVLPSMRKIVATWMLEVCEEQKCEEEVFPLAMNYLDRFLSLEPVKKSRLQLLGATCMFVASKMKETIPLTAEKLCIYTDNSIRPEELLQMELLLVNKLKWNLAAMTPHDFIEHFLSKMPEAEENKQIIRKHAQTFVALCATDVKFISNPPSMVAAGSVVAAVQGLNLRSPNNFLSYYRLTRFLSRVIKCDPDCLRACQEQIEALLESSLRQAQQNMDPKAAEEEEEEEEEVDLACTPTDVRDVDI
Chain of Cdk6/CyclinD3 (Q00534 whole entry): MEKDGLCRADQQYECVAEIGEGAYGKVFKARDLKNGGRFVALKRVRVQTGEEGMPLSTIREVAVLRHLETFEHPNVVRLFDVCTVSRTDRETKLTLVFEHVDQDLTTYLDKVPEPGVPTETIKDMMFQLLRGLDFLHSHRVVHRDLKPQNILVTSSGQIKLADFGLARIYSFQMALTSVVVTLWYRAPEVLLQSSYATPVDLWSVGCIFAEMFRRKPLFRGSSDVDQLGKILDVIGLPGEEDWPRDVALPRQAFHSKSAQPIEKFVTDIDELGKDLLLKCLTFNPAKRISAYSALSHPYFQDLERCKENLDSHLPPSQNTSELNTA
Chain of Cdk6/CyclinD3 (P30281 whole entry partner): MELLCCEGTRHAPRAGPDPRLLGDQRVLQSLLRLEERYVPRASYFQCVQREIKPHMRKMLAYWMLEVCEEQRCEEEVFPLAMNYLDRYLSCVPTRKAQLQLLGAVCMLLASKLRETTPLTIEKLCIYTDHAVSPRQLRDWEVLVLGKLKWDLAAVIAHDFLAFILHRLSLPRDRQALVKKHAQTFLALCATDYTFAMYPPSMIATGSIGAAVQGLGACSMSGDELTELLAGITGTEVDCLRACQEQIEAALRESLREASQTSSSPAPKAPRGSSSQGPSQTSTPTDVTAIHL

The term IC50 denotes the point on the concentration scale where inhibition reaches its midpoint. On to `OC1CCC2(CC1)Oc1ncccc1-c1cnc(Nc3ccc(N4CCNCC4)cn3)nc12` (mixture of isomers) [Example 40], for which the values for the half-maximal inhibitory concentration (IC50) at Cdk4/CyclinD1 and on Cdk6/CyclinD3 were 0.084 µM and 0.033 µM, respectively.
Regarding `CC1(C)CC2(CCO1)Oc1ncccc1-c1cnc(Nc3ccc(N4CCNCC4)cc3)nc12` (racemic) [Example 35, (racemic)-2,2-dimethyl-N-(4-(1-piperazinyl)phenyl)-2,3,5,6-tetrahydrospiro[pyran-4,5′-pyrido[3′,2′:5,6]pyrano[3,4-d]pyrimidin]-3′-amine], the half-inhibitory concentration (IC50) on Cdk4/CyclinD1 amounted to 0.077 µM; at Cdk6/CyclinD3, 0.06 µM.
For `CC1(C)C=CC2(CC1)c1cnccc1-c1cnc(Nc3ccc(N4CCNCC4)cc3)nc12` (racemic) [Example 44, (racemic)-4,4-dimethyl-N-(4-(1-piperazinyl)phenyl)spiro[cyclohex-2-ene-1,9′-pyrido[4′,3′:3,4]cyclopenta[1,2-d]pyrimidin]-2′-amine], the IC50 on Cdk4/CyclinD1 was determined as 0.0008 µM; at Cdk6/CyclinD3, 0.027 µM.
For `CN(C)C1CCN(c2ccc(Nc3ncc4c(n3)C3(C=CC(C)(C)CC3)c3cnccc3-4)nn2)CC1` (racemic) [Example 76, (racemic)-4,4-dimethyl-N-(6-(4-(dimethylamino)piperidin-1-yl)-pyridazin-3-yl)spiro[cyclohex-2-ene-1,9′-pyrido[4′,3′:3,4]cyclopenta[1,2-d]pyrimidin]-2′-amine], the figures for the IC50 on Cdk4/CyclinD1 and on Cdk6/CyclinD3 were 0.0146 µM and 0.205 µM, respectively.
On the same counts, the results for `CN1CCN(c2ccc(Nc3ncc4c(n3)C3(CCCCC3)Oc3ccccc3-4)cc2)CC1` [Example 3, N-(4-(4-methyl-1-piperazinyl)phenyl)spiro[chromeno[3,4-d]pyrimidine-5,1′-cyclohexan]-3-amine] are 0.0142 µM and 0.0142 µM.
On the same counts, the results for `c1ccc2c(c1)OC1(CCCC1)c1nc(Nc3ccc(N4CCNCC4)cn3)ncc1-2` [Example 15, N-(5-(1-piperazinyl)-2-pyridinyl)spiro[chromeno[3,4-d]pyrimidine-5,1′-cyclopentan]-3-amine] are 0.084 µM and 0.0135 µM.
For `CS(=O)(=O)c1cccc2c1OC1(CCCCC1)c1nc(Nc3ccc(N4CCNCC4)cn3)ncc1-2` [Example 23, 7-(methylsulfonyl)-N-(5-(1-piperazinyl)-2-pyridinyl)spiro[chromeno[3,4-d]pyrimidine-5,1′-cyclohexan]-3-amine], in that order: 2.85 µM and 2.62 µM.
In the case of `c1cnc2c(c1)OC1(CCOCC1)c1nc(Nc3ccc(N4CCNCC4)cc3)ncc1-2` [Example 25, N-(4-(1-piperazinyl)phenyl)-2,3,5,6-tetrahydrospiro[pyran-4,6′-pyrido[2′,3′:5,6]pyrano[3,4-d]pyrimidin]-8′-amine], the IC50 on Cdk4/CyclinD1 was found to be 0.33 µM; on Cdk6/CyclinD3, 0.54 µM.
On the same counts, the results for `CC1(C)CCC2(CC1)Oc1ncccc1-c1cnc(Nc3ccc(N4CCNCC4)cn3)nc12` [Example 27, 4,4-dimethyl-N-(5-(1-piperazinyl)-2-pyridinyl)spiro[cyclohexane-1,5′-pyrido[3′,3′:5,6]pyrano[3,4-d]pyrimidin]-3′-amine] are 0.074 µM and 0.068 µM.
For `c1cnc2c(c1)-c1cnc(Nc3ccc(N4CCNCC4)cc3)nc1C1(CCCCC1)O2` [Example 29, N-(4-(1-piperazinyl)phenyl)spiro[cyclohexane-1,5′-pyrido[3′,2′:5,6]pyrano[3,4-d]pyrimidin]-3′-amine], in that order: 0.0059 µM and 0.0011 µM.
On the same counts, the results for `O=C(c1csc(Nc2ncc3c(n2)C2(CCCCC2)c2cnccc2-3)n1)N1CCNCC1` [Example 48, N-(4-(1-piperazinylcarbonyl)-1,3-thiazol-2-yl)spiro[cyclohexane-1,9′-pyrido[4′,3′:3,4]cyclopenta[1,2-d]pyrimidin]-2′-amine] are 0.044 µM and 0.266 µM.
In the case of `CC1(C)CCc2cnc(Nc3ccc(N4CCNCC4)cc3)nc21` [Example 49, 7,7-dimethyl-N-(4-(1-piperazinyl)phenyl)-6,7-dihydro-5H-cyclopenta[d]pyrimidin-2-amine], the IC50 on Cdk4/CyclinD1 was 0.668 µM.
With `c1ccc2c(c1)-c1cnc(Nc3ccc(N4CCNCC4)cc3)nc1C21CCNCC1` [Example 50, N-(4-(1-piperazinyl)phenyl)spiro[indeno[2,1-d]pyrimidine-9,4′-piperidin]-2-amine], the concentration for half-maximal inhibition (IC50) came out at 0.0562 µM on Cdk4/CyclinD1 and 0.081 µM at Cdk6/CyclinD3.
Consider `c1cc2c(cn1)C1(CCOCC1)c1nc(Nc3ccc(N4CCNCC4)cn3)ncc1-2` [Example 63, N-(5-(1-piperazinyl)-2-pyridinyl)-2,3,5,6-tetrahydrospiro[pyran-4,9′-pyrido[4′,3′:3,4]cyclopenta[1,2-d]pyrimidin]-2′-amine], for which, at Cdk4/CyclinD1, the IC50 worked out at 0.41 µM.
On the same count and under the same terms, the result for `O=C1NC2(CCCCC2)c2nc(Nc3ccc(N4CCNCC4)cc3)ncc21` [Example 68, 2′-((4-(1-piperazinyl)phenyl)amino)spiro[cyclohexane-1,7′-pyrrolo[3,4-d]pyrimidin]-5′(6′H)-one] reads 1.14 µM.
Consider `CC1CC(O)C2(CC=CC2)c2nc(Nc3ccc(N4CCNCC4)cn3)ncc21` [Example 71, (7S)-5′-methyl-2′-((5-(1-piperazinyl)-2-pyridinyl)amino)-6′,7′-dihydro-5′H-spiro[cyclopent-3-ene-1,8′-quinazolin]-7′-ol], for which the half-inhibitory concentration (IC50) worked out at 0.71 µM at Cdk4/CyclinD1 and 0.51 µM on Cdk6/CyclinD3.
In the case of `CC1=CC(=O)C2(CCCC2)c2nc(Nc3ccc(N4CCNCC4)cn3)ncc21` [Example 73, 5′-methyl-2′-((5-(1-piperazinyl)-2-pyridinyl)amino)-7′H-spiro[cyclopentane-1,8′-quinazolin]-7′-one], at Cdk4/CyclinD1, the IC50 was found to be 2.5 µM.
In the case of `C[C@@H]1CC(=O)C2(CC=CC2)c2nc(Nc3ccc(N4CCNCC4)cn3)ncc21` [Example 74, (5′R)-5′-methyl-2′-((5-(1-piperazinyl)-2-pyridinyl)amino)-5′,6′-dihydro-7′H-spiro[cyclopent-3-ene-1,8′-quinazolin]-7′-one], the IC50 was 3.5 µM on Cdk4/CyclinD1 and 1.8 µM on Cdk6/CyclinD3.
